Measurements as given in patent US20230027075A1, “SULFONAMIDE COMPOUNDS TARGETING CD73 AND ADENOSINE RECEPTORS” (Aurigene Discovery Technologies Limited, priority 2019, published 2023).
pIC50: −log10 of the molar value. Structures can show the parent of a compound that is named as a salt.

Legend:
A2aR = target: T1, A2aR (Homo sapiens, UniProt P29274); test: A2aR biochemical assay (TR-FRET binding, Tag-lite A2aR labelled cells, fluorescent antagonist); conditions: 10 nM fluorescent A2aR antagonist; for inhibition at 20 µM: read-out: % inhibition at 20 μM (Percent inhibition data in A2aR); for pIC50: four-parameter curve fit, read-out: Potency (IC50 values) of selected compounds in A2aR, group
T1 construct: expressed in transfected cells
T1 sequence (P29274 whole entry): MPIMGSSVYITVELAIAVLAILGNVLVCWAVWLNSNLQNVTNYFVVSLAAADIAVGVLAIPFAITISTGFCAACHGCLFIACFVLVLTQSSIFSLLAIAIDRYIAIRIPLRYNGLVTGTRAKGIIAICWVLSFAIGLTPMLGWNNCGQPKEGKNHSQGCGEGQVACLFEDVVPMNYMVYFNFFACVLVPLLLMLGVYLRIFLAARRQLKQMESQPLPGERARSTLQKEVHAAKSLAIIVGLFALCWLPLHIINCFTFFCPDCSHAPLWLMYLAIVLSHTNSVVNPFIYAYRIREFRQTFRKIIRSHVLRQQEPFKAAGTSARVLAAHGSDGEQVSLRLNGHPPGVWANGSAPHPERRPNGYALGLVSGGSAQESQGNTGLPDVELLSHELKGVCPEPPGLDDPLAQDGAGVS
Procedure: The compounds of present invention were assayed for A2aR enzyme binding activity in a TR-FRET based method. Typically, 10 μL of A2aR labelled cells in assay buffer (Tag-lite, 1×) is added to a 384-well plate containing 5 μL of a compound of present invention in final 1% DMSO, serially diluted in 1:5 in a 5-6 point titration. The aforesaid compound and cells are incubated for 30 minutes at room temperature. Next, 5 μL of A2aR antagonist (fluorescent ligand) in assay buffer is added to the plate. The final concentration of A2aR antagonist is 10 nM. Following 30 minutes reaction at room temperature, the plate was read on a plate reader (Ex: 340 nm Em: 615 nm and 665 nm) to measure the binding of test compound to A2aR cells. The results are interpreted as percentage inhibition as presented in Table-2A of binding by the test compound with respect to the DMSO control.

[1] = target: T2, human-CD73 (Trp27-Lys547, His-tag) (Homo sapiens, UniProt P21589); test: CD73 biochemical assay (colorimetric, Malachite Green phosphate detection); conditions: 2 nM CD73, 50 μM AMP; for inhibition at 20 µM: read-out: % inhibition at 20 μM (Percent inhibition data in CD73); for pIC50: four-parameter curve fit, read-out: Potency (IC50 values) of selected compounds in CD73, group
T2 construct: human-CD73 (Trp27-Lys547, His-tag); His-tag
T2 sequence (P21589 27-547): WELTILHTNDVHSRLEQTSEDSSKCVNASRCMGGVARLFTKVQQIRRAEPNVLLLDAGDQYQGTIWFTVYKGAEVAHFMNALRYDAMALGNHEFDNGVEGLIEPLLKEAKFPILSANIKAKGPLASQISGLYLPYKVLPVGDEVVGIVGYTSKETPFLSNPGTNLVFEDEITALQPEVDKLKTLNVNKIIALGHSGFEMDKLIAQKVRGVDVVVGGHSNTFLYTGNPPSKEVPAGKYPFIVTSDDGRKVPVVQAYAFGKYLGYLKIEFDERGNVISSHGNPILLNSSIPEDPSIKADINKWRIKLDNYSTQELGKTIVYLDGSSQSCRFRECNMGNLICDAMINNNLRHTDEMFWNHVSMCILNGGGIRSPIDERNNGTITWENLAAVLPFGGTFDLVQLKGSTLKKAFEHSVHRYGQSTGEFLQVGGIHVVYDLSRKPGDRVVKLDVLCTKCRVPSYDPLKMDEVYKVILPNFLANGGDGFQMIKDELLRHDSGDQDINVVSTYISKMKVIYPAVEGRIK
Procedure: A colorimetric-based method was used for assaying compounds of the invention for CD73 enzyme inhibitory activity. Human CD73 catalyzes the conversion of AMP to adenosine with the release of orthophosphate. A Malachite Green Phosphate Detection kit is used to measure the formation of orthophosphate product. […] A compound of the present invention and enzyme are incubated for 30 minutes at room temperature. Next, 20 μL of AMP in assay buffer is added to the plate. The final concentration of CD73 and AMP are 2 nM and 50 μM respectively. Following 30 minutes reaction at room temperature, 20 μL of Malachite reagent is added to all the reaction wells. The formation of green complex formed between Malachite Green, molybdate and free orthophosphate is measured on a plate reader (620 nm).

[2] = 20 μM compound, vs DMSO control

SMILES	inhibition at 20 µM (A2aR; [2])	pIC50 (A2aR)	inhibition at 20 µM ([1]; 20 μM compound)	pIC50 [1]	% inhibition at 20 μM (Percent inhibition data in CD73) ([1]; 20 μM compound, sodium salt)	% inhibition at 20 μM (Percent inhibition data in A2aR) (A2aR; [2])
NC(=O)c1cc(S(=O)(=O)Nc2ccc(CCCNc3nc(N)n4nc(-c5ccco5)nc4n3)c(O)c2)cc(Cl)c1O [Example A13, 5-(N-(4-(3-((7-amino-2-(furan-2-yl)-[1,2,4]triazolo[1,5-a][1,3,5]triazin-5-yl)amino)propyl)-3-hydroxyphenyl)sulfamoyl)-3-chloro-2-hydroxybenzamide]	83%	7.30 to 7.60	97%	> 7.00	–	–
Nc1nc(NCCc2ccc(NS(=O)(=O)c3cc(Cl)c4c(c3)CC(=O)N4)cc2)nc2nc(-c3ccco3)nn12 [Example B1, N-(4-(2-((7-amino-2-(furan-2-yl)-[1,2,4]triazolo[1,5-a][1,3,5]triazin-5-yl)amino)ethyl)phenyl)-7-chloro-2-oxoindoline-5-sulfonamide]	80%	–	35%	–	–	–
NC(=O)c1cc(S(=O)(=O)Nc2ccc(CCCNc3nc(N)n4nc(-c5ccco5)nc4n3)cc2)cc(Cl)c1O [Example A26, 5-(N-(4-(3-((7-amino-2-(furan-2-yl)-[1,2,4]triazolo[1,5-a][1,3,5]triazin-5-yl)amino)propyl)phenyl)sulfamoyl)-3-chloro-2-hydroxybenzamide sodium salt]	80%	–	–	–	96%	–
CC(C)COC(=O)Nc1nc(NCCc2ccc(NS(=O)(=O)c3cc(Cl)c(O)c(C(N)=O)c3)cc2)nc2nc(-c3ccco3)nn12 [Example A9, Isobutyl (5-((4-((3-carbamoyl-5-chloro-4-hydroxyphenyl)sulfonamido)phenethyl)amino)-2-(furan-2-yl)-[1,2,4]triazolo[1,5-a][1,3,5]triazin-7-yl)carbamate]	82%	–	39%	–	–	–
NC(=O)c1cc(S(=O)(=O)Nc2cccc(CNc3nc(N)n4nc(-c5ccco5)nc4n3)c2)cc(Cl)c1O [Example A1, 5-(N-(3-(((7-amino-2-(furan-2-yl)-[1,2,4]triazolo[1,5-a][1,3,5]triazin-5-yl)amino)methyl)phenyl)sulfamoyl)-3-chloro-2-hydroxybenzamide]	78%	> 7.60	91%	< 6.00	–	–
NC(=O)c1cc(S(=O)(=O)Nc2ccc(CCNc3nc(N)n4nc(-c5ccco5)nc4n3)cc2F)cc(Cl)c1O [Example A7, 5-(N-(4-(3-((7-amino-2-(furan-2-yl)-[1,2,4]triazolo[1,5-a][1,3,5]triazin-5-yl)amino)ethyl)-2-fluorophenyl)sulfamoyl)-3-chloro-2-hydroxybenzamide]	84%	–	42%	–	–	–
NC(=O)c1cc(S(=O)(=O)Nc2ccc3ccn(CCNc4nc(N)n5nc(-c6ccco6)nc5n4)c3c2)cc(Cl)c1O [Example D1, 5-(N-(1-(2-((7-amino-2-(furan-2-yl)-[1,2,4]triazolo[1,5-a][1,3,5]triazin-5-yl)amino)ethyl)-1H-indol-6-yl)sulfamoyl)-3-chloro-2-hydroxybenzamide]	85%	–	49%	6.00 to 6.96	–	–
NC(=O)c1cc(S(=O)(=O)Nc2ccc(CCCNc3cc(N)n4nc(-c5ccco5)cc4n3)cc2)cc(Cl)c1O [Example A24]	79%	< 7.30	92%	> 7.00	–	–
NC(=O)c1cc(S(=O)(=O)Nc2ccc(CCCNc3nc(N)n4nc(-c5ccco5)nc4n3)cc2)cc(Cl)c1O [Example A11, 5-(N-(4-(3-((7-amino-2-(furan-2-yl)-[1,2,4]triazolo[1,5-a][1,3,5]triazin-5-yl)amino)propyl)phenyl)sulfamoyl)-3-chloro-2-hydroxybenzamide]	–	> 7.60	98%	> 7.00	–	88%
NC(=O)c1cc(S(=O)(=O)Nc2ccc(CCCNc3cc4nc(-c5ccco5)nn4c(N)n3)cc2)cc(Cl)c1O [Example A19, 5-(N-(4-(3-((5-amino-2-(furan-2-yl)-[1,2,4]triazolo[1,5-c]pyrimidin-7-yl)amino)propyl)phenyl)sulfamoyl)-3-chloro-2-hydroxybenzamide]	83%	–	96%	< 6.00	–	–
NC(=O)c1cc(S(=O)(=O)Nc2ccc(CCNc3nc(N)n4nc(-c5ccco5)nc4n3)nc2)cc(Cl)c1O [Example E1, 5-(N-(6-(2-((7-amino-2-(furan-2-yl)-[1,2,4]triazolo[1,5-a][1,3,5]triazin-5-yl)amino)ethyl)pyridin-3-yl)sulfamoyl)-3-chloro-2-hydroxybenzamide]	83%	–	86%	< 6.00	–	–
NC(=O)c1cc(S(=O)(=O)Nc2ccc(CCCCNc3nc(N)n4nc(-c5ccco5)nc4n3)cc2)cc(Cl)c1O [Example A18, 5-(N-(4-(4-((7-amino-2-(furan-2-yl)-[1,2,4]triazolo[1,5-a][1,3,5]triazin-5-yl)amino)butyl)phenyl)sulfamoyl)-3-chloro-2-hydroxybenzamide]	82%	–	87%	< 6.00	–	–
CC(=O)Nc1nc(NCCc2ccc(NS(=O)(=O)c3cc(Cl)c(O)c(C(N)=O)c3)cc2)nc2nc(-c3ccco3)nn12 [Example A8, 5-(N-(4-(2-((7-acetamido-2-(furan-2-yl)-[1,2,4]triazolo[1,5-a][1,3,5]triazin-5-yl)amino)ethyl)phenyl)sulfamoyl)-3-chloro-2-hydroxybenzamide]	81%	–	70%	–	–	–
NC(=O)c1cc(S(=O)(=O)Nc2ccc(CCNc3nc(N)n4nc(-c5ccco5)nc4n3)cc2)cc(Cl)c1O [Example A3, 5-(N-(4-(2-((7-amino-2-(furan-2-yl)-[1,2,4]triazolo[1,5-a][1,3,5]triazin-5-yl)amino)ethyl)phenyl)sulfamoyl)-3-chloro-2-hydroxybenzamide]	83%	> 7.60	96%	6.00 to 6.96	–	–
Nc1nc(NCCCc2ccc(NS(=O)(=O)c3cc(Cl)c4oc(=O)[nH]c(=O)c4c3)cc2)nc2nc(-c3ccco3)nn12 [Example B4, N-(4-(3-((7-amino-2-(furan-2-yl)-[1,2,4]triazolo[1,5-a][1,3,5]triazin-5-yl)amino)propyl)phenyl)-8-chloro-2,4-dioxo-3,4-dihydro-2H-benzo[e][1,3]oxazine-6-sulfonamide]	86%	–	99%	–	–	–
NC(=O)c1cc(S(=O)(=O)Nc2ccc(CCCNc3cc(N)n4nc(-c5ccco5)nc4n3)cc2)cc(Cl)c1O [Example A20, 5-(N-(4-(3-((7-amino-2-(furan-2-yl)-[1,2,4]triazolo[1,5-a]pyrimidin-5-yl)amino)propyl)phenyl)sulfamoyl)-3-chloro-2-hydroxybenzamide]	80%	7.30 to 7.60	92%	> 7.00	–	–
Nc1nc(NCCc2ccc(NS(=O)(=O)c3cc(F)c(O)c(Cl)c3)cc2)nc2nc(-c3ccco3)nn12 [Example A4, N-(4-(2-((7-amino-2-(furan-2-yl)-[1,2,4]triazolo[1,5-a][1,3,5]triazin-5-yl)amino)ethyl)phenyl)-3-chloro-5-fluoro-4-hydroxybenzenesulfonamide]	81%	–	27%	–	–	–
NC(=O)c1cc(S(=O)(=O)Nc2ccc(CCCNc3nc(N)n4nc(-c5ccco5)nc4n3)c(F)c2)cc(Cl)c1O [Example A14, 5-(N-(4-(3-((7-amino-2-(furan-2-yl)-[1,2,4]triazolo[1,5-a][1,3,5]triazin-5-yl)amino)propyl)-3-fluorophenyl)sulfamoyl)-3-chloro-2-hydroxybenzamide]	82%	–	94%	> 7.00	–	–
